{"source": "patent US20030228572A1", "about": "“Method of determining the efficacy of a compound in treating microbial infection” (priority 1998, published 2003)", "key": {"[1]": {"test_system": "S. aureus ATCC 29213 (OSSA)", "test": "Impedance growth curves (detection time, DT) on Mueller-Hinton agar with oxacillin, BACTOMETER M-128", "format": "cell-based", "settings": "for DT (detection time): Mueller-Hinton agar", "method": "(§1) Mueller-Hinton agar containing different concentrations of oxacillin (0 to 128 μg) was prepared by two-fold serial dilutions, and 0.6 ml of the medium was dispensed into the module wells of […]-128 (bioMerieux Vitek, Hazelwood, Mo.). The three ATCC S. aureus strains were used to observe the effect of oxacillin concentration on the impedance curves during bacterial growth. These strains were subcultured on TSA for 18 to 24 hours (“h”) at 37° C. One single colony on TSA was inoculated into 10 ml of TSB, incubated at 37° C. for several hours, and diluted with 0.1% peptone water to a turbidity of 0.5 McFarland. An aliquot (0.1 ml) of the bacterial suspensions was inoculated into the module well containing Mueller-Hinton agar supplemented with oxacillin. The inoculated modules (each module contains 16 wells) were inserted into the incubator of BACTOMETER set at 37° C. The impedance change in each well was continuously monitored and recorded by the instrument at 6-minute (“min”) intervals for 24 h, and results were obtained graphically as impedance growth curves. DT in hours for each well was automatically determined by the instrument software when three consecutive readings of impedance change exceeded the default value in the instrument, or was manually determined by locating the inflection point (where an accelerating change of impedance was evident) on the impedance curve."}, "[2]": {"test_system": "S. aureus ATCC 33591 (ORSA)", "test": "Impedance growth curves (detection time, DT) on Mueller-Hinton agar with oxacillin, BACTOMETER M-128", "format": "cell-based", "settings": "for DT (detection time): Mueller-Hinton agar, without oxacillin 5.3 h", "method": "as §1"}, "[3]": {"test_system": "S. aureus ATCC 33592 (ORSA)", "test": "Impedance growth curves (detection time, DT) on Mueller-Hinton agar with oxacillin, BACTOMETER M-128", "format": "cell-based", "settings": "for DT (detection time): Mueller-Hinton agar, without oxacillin 5.3 h", "method": "as §1"}, "[4]": {"test_system": "clinical S. aureus isolates, ORSA", "test": "Oxacillin susceptibility test of clinical isolates by the impedance method", "format": "cell-based", "settings": "for DT in h on Mueller-Hinton agar With Oxacillin (2 μg/ml), mean ± standard deviation: without oxacillin 5.7 ± 0.6 h", "method": "(§2) Susceptibility tests of the 235 clinical isolates of S. aureus were performed in a similar way to that used for the ATCC strains, except that only one concentration (2 μg/ml) of oxacillin in Mueller-Hinton agar was used. A negative control (Mueller-Hinton agar without oxacillin) was included for each strain tested. A strain was designated as OSSA if, in the presence of the antibiotic, there was no DT obtained within an incubation period of 24 h. A strain was designated as ORSA if, in the presence of the antibiotic, the DT was not affected or the delay in DT was less than 3 h as compared to the negative control. S. aureus ATCC 29213 (OSSA) and ATCC 33592 (ORSA) were run at the same time as controls. Strains showing discrepant results were reconfirmed by the oxacillin screen agar (Becton Dickinson Microbiology Systems, Cockysville, Md.)."}, "[5]": {"test_system": "clinical S. aureus isolates, OSSA", "test": "Oxacillin susceptibility test of clinical isolates by the impedance method", "format": "cell-based", "method": "as §2"}, "[6]": {"test_system": "blood cultures containing ORSA", "test": "Direct detection in blood cultures by the impedance method", "format": "cell-based, S. aureus", "settings": "oxacillin 2 μg/ml; 36 of 38 vials containing ORSA", "method": "(§3) Blood specimens were collected at the National Cheng Kung University Hospital during a period in 1996. The BACTEC NR6A and NR7A vials (containing about 30 ml of liquid media; Becton Dickinson Microbiology Systems) were normally inoculated with 3 to 5 ml of blood from the patients, inserted into a BACTEC NR660 instrument (Becton Dickinson Microbiology Systems), and incubated at 37° C. A small aliquot (0.1 to 0.2 ml) of the culture broth was drawn from the vials showing growth of gram-positive cocci (as determined by Gram stain), heated in a boiling water bath for 15 min, and tested for thermonuclease activities on slides coated with toluidine blue-DNA agar (Bennett et al., Staphylococcus aureus, pp. 161-166, In: Bacteriological Analytical Manual, 7th ed. Association of Official Analytical Chemists International, Arlington, Va., 1992). A positive thermonuclease reaction was the development of a pink halo extending at least 1 mm from the periphery of the reaction well. […] The modules were incubated at 37° C. and DTs of the wells were automatically determined by the instrument or by manual inspection of the impedance curves. A vial was designated as ORSA or OSSA positive according to the same parameters set for pure stock cultures. […]"}, "[7]": {"test_system": "blood cultures containing OSSA", "test": "Direct detection in blood cultures by the impedance method", "format": "cell-based, S. aureus", "settings": "oxacillin 2 μg/ml; 57 of 58 blood cultures containing OSSA; within an incubation period of 24 h", "method": "as §3"}, "[8]": {"settings": "oxacillin concentration as high as 128 μg/ml"}, "[9]": {"settings": "oxacillin concentration as high as 64 yg/ml"}}, "data": [{"smiles": "Cc1onc(-c2ccccc2)c1C(=O)N[C@@H]1C(=O)N2[C@@H]1SC(C)(C)[C@@H]2C(=O)O", "note": "[oxacillin]", "values": [{"measurement": "DT (detection time)", "setting": "[1]; oxacillin 0.063 μg per ml, without oxacillin 4.0 h", "result": 4.1, "unit": "h"}, {"measurement": "increase in DT", "setting": "[1]; oxacillin 0.063 μg/ml versus no oxacillin", "result": 0.1, "unit": "h"}, {"measurement": "DT (detection time)", "setting": "[1]; oxacillin 0.125 μg per ml, without oxacillin 4.0 h", "result": 4.1, "unit": "h"}, {"measurement": "increase in DT", "setting": "[1]; oxacillin 0.125 μg/ml versus no oxacillin", "result": 0.1, "unit": "h"}, {"measurement": "DT (detection time)", "setting": "[1]; oxacillin 0.25 μg per ml, within 16 hours", "result": "no DT"}, {"measurement": "growth", "setting": "[1]; oxacillin 0.25 μg/ml", "result": "almost completely inhibited"}, {"measurement": "DT (detection time)", "setting": "[2]; oxacillin 32 μg per ml", "result": 6.2, "unit": "h"}, {"measurement": "DT (detection time)", "setting": "[2]; oxacillin 64 μg per ml", "result": 6.8, "unit": "h"}, {"measurement": "DT (detection time)", "setting": "[2]; oxacillin 128 μg per ml", "result": 12.1, "unit": "h"}, {"measurement": "growth", "setting": "[2]; [8]", "result": "not inhibited to a large extent"}, {"measurement": "growth", "setting": "[2]; [9]", "result": "only slightly inhibited"}, {"measurement": "DT (detection time)", "setting": "[3]; oxacillin 32 μg per ml", "result": 6.3, "unit": "h"}, {"measurement": "DT (detection time)", "setting": "[3]; oxacillin 64 μg per ml", "result": 7.0, "unit": "h"}, {"measurement": "DT (detection time)", "setting": "[3]; oxacillin 128 μg per ml", "result": 9.3, "unit": "h"}, {"measurement": "growth", "setting": "[3]; [8]", "result": "not inhibited to a large extent"}, {"measurement": "growth", "setting": "[3]; [9]", "result": "only slightly inhibited"}, {"measurement": "DT in h (range) on Mueller-Hinton agar With Oxacillin (2 μg/ml)", "setting": "[4]; 141 ORSA strains, range over strains", "result": "4.7 to 9.1", "unit": "h"}, {"measurement": "DT in h on Mueller-Hinton agar With Oxacillin (2 μg/ml), mean ± standard deviation", "setting": "[4]; 141 ORSA strains", "result": "6.0 ± 0.7", "unit": "h"}, {"measurement": "DT in h on Mueller-Hinton agar With Oxacillin (2 μg/ml), mean ± standard deviation", "setting": "[4]; 141 ORSA strains, listed as Oxacillin", "result": "6.0 ± 0.7", "unit": "h"}, {"measurement": "delay in DTs compared to negative controls", "setting": "[4]; oxacillin 2 μg/ml, 141 of 149 ORSA strains (DTs equal to controls or delayed)", "result": "less than 3 h"}, {"measurement": "DT behind the negative control", "setting": "[4]; oxacillin 2 μg/ml, false-negative strain no. 127", "result": 17, "unit": "h"}, {"measurement": "DT", "setting": "[4]; oxacillin 2 μg/ml, false-negative strain no. 127, negative control DT=5.7 h", "result": 22.7, "unit": "h"}, {"measurement": "DT", "setting": "[4]; oxacillin 2 μg/ml, seven of the eight false-negative strains, within an incubation period of 24 h", "result": "no DT"}, {"measurement": "DT in h (range) on Mueller-Hinton agar With Oxacillin (2 μg/ml)", "setting": "[5]; 84 correctly identified of 86 OSSA strains, 24 h incubation", "result": "—^c (—, DT was not found within an incubation period of 24 h.)"}, {"measurement": "DT", "setting": "[5]; oxacillin 2 μg/ml, 84 of the 86 OSSA strains, within an incubation period of 24 h", "result": "no DT"}, {"measurement": "average DT", "setting": "[6]", "result": 5.5, "unit": "h"}, {"measurement": "DT", "setting": "[7]", "result": "no DTs"}]}]}
